Test results from PubChem BioAssay AID256 (DTP/NCI, 2004).
“And” between values parts separate entries of the source, which are not always exact repeats. Equal values may be shown once. Toxic doses and inconclusive results are not listed. How the source made its calls: active means survival T/C of 150% or more; inactive means T/C below 125% in these data.

Tested on: CD2F1 mice, L1210 leukemia ip, survival T/C
Assay: NCI In Vivo Anticancer Drug Screen. Data for tumor model L1210 Leukemia (intraperitoneal) in CD2F1 (CDF1) mice
Conditions: higher = longer survival
Procedure, shortened: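 Tumor-bearing mice (transplanted tumor) were split into treated and vehicle control groups, and the measured endpoint of each treated group was divided by that of its vehicle controls.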

[1] = endpoint: mean survival time, dose: 50.0 mg/kg/injection, schedule: Q01DX009 (ip), vehicle: saline with Tween-80
[2] = endpoint: mean survival time, dose: 100.0 mg/kg/injection, schedule: Q04DX003 (ip), vehicle: saline with Tween-80
[3] = endpoint: mean survival time, dose: 200.0 mg/kg/injection, schedule: Q04DX003 (ip), vehicle: saline with Tween-80
[4] = endpoint: mean survival time, dose: 400.0 mg/kg/injection, schedule: Q04DX003 (ip), vehicle: saline with Tween-80
[5] = endpoint: mean survival time, dose: 100.0 mg/kg/injection, schedule: Q01DX009 (ip), vehicle: saline with Tween-80
[6] = endpoint: mean survival time, dose: 200.0 mg/kg/injection, schedule: Q01DX009 (ip), vehicle: saline with Tween-80
[7] = endpoint: mean survival time, dose: 400.0 mg/kg/injection, schedule: Q01DX009 (ip), vehicle: saline with Tween-80
[8] = endpoint: mean survival time, dose: 75.0 mg/kg/injection, schedule: Q01DX001 (ip), vehicle: other
[9] = endpoint: mean survival time, dose: 150.0 mg/kg/injection, schedule: Q01DX001 (ip), vehicle: other
[10] = endpoint: mean survival time, dose: 300.0 mg/kg/injection, schedule: Q01DX001 (ip), vehicle: other
[11] = endpoint: mean survival time, dose: 50.0 mg/kg/injection, schedule: Q01DX009 (ip), vehicle: Klucel (hydroxypropylcellulose) (HPC)
[12] = endpoint: mean survival time, dose: 100.0 mg/kg/injection, schedule: Q01DX009 (ip), vehicle: Klucel (hydroxypropylcellulose) (HPC)
[13] = endpoint: mean survival time, dose: 100.0 mg/kg/injection, schedule: Q01DX001 (ip), vehicle: saline with Tween-80
[14] = endpoint: mean survival time, dose: 200.0 mg/kg/injection, schedule: Q01DX001 (ip), vehicle: saline with Tween-80
[15] = endpoint: mean survival time, dose: 400.0 mg/kg/injection, schedule: Q01DX001 (ip), vehicle: saline with Tween-80

Measured: T/C

COC(=O)C1C2CC(O)C(C2)C1C(=O)OC (stereo not drawn)
inactive: endpoint: mean survival time, dose: 12.5 mg/kg/injection, schedule: Q01DX009 (ip), vehicle: saline with Tween-80 97 % of control | endpoint: mean survival time, dose: 25.0 mg/kg/injection, schedule: Q01DX009 (ip), vehicle: saline with Tween-80 101 % of control | [1] 104 % of control

O=C(O)c1c(Cl)c(Cl)c(C(=O)O)c(Cl)c1Cl
inactive: [2] 96 % of control | [3] 96 % of control | [4] 94 % of control

COC1=C2C[C@@H](C)C[C@@H](OC)[C@@H](O)[C@H](C)/C=C(\C)[C@@H](OC(N)=O)[C@H](OC)/C=C\C=C(/C)C(=O)NC(=CC1=O)C2=O
inactive: endpoint: mean survival time, dose: 0.12 mg/kg/injection, schedule: Q01DX009 (ip), vehicle: saline with Tween-80 102 % of control | endpoint: mean survival time, dose: 0.25 mg/kg/injection, schedule: Q01DX009 (ip), vehicle: saline with Tween-80 102 % of control | endpoint: mean survival time, dose: 0.5 mg/kg/injection, schedule: Q01DX009 (ip), vehicle: saline with Tween-80 98 % of control | endpoint: mean survival time, dose: 1.0 mg/kg/injection, schedule: Q01DX009 (ip), vehicle: saline with Tween-80 101 % of control | endpoint: mean survival time, dose: 2.0 mg/kg/injection, schedule: Q01DX009 (ip), vehicle: saline with Tween-80 112 % of control | endpoint: mean survival time, dose: 4.0 mg/kg/injection, schedule: Q01DX009 (ip), vehicle: saline with Tween-80 111 % of control | endpoint: mean survival time, dose: 5.0 mg/kg/injection, schedule: Q01DX001 (ip), vehicle: saline 104 % of control | endpoint: mean survival time, dose: 10.0 mg/kg/injection, schedule: Q01DX001 (ip), vehicle: saline 107 % of control

O=c1cccc(Cl)[nH]1
inactive: [5] 102 % of control | [2] 98 % of control | [6] 102 % of control | [3] 102 % of control | [7] 90 % of control | [4] 98 % of control

O=C(O)c1c(F)cccc1Br
inactive: endpoint: mean survival time, dose: 100.0 mg/kg/injection, schedule: Q04DX002 (ip), vehicle: saline with Tween-80 102 % of control | endpoint: mean survival time, dose: 200.0 mg/kg/injection, schedule: Q04DX002 (ip), vehicle: saline with Tween-80 98 % of control | endpoint: mean survival time, dose: 400.0 mg/kg/injection, schedule: Q04DX002 (ip), vehicle: saline with Tween-80 102 % of control

CC(=O)Nc1nc(CCCCc2ccccc2)cc(=O)[nH]1
inactive: endpoint: mean survival time, dose: 37.5 mg/kg/injection, schedule: Q01DX001 (ip), vehicle: saline with Tween-80 100 % of control | endpoint: mean survival time, dose: 75.0 mg/kg/injection, schedule: Q01DX001 (ip), vehicle: saline with Tween-80 96 % of control | endpoint: mean survival time, dose: 150.0 mg/kg/injection, schedule: Q01DX001 (ip), vehicle: saline with Tween-80 94 % of control

COc1ccc(Cl)c2c1C1(CC(CC=O)C2)OCCO1 (stereo not drawn)
inactive: [8] 100 % of control | [9] 94 % of control | [10] 94 % of control

CCCC1=C(CCC)C(F)(F)C1(F)F
inactive: [8] 98 % of control | [9] 96 % of control | [10] 108 % of control

O=C(Nc1ccccc1Cl)c1ccc([N+](=O)[O-])cc1
inactive: [5] 94 % of control | [2] 96 % of control | [6] 97 % of control | [3] 96 % of control | [7] 97 % of control | [4] 93 % of control

CC(C)=CC1CC(C)C2(CCC3(C)CC4C(C(=O)CC4(C)O)/C(C=O)=C\CC32)O1 (stereo not drawn)
inactive: endpoint: mean survival time, dose: 2.5 mg/kg/injection, schedule: Q01DX009 (ip), vehicle: saline with Tween-80 97 % of control | endpoint: mean survival time, dose: 5.0 mg/kg/injection, schedule: Q01DX009 (ip), vehicle: saline with Tween-80 94 % of control | endpoint: mean survival time, dose: 10.0 mg/kg/injection, schedule: Q01DX009 (ip), vehicle: saline with Tween-80 97 % of control

N#[N+]c1c([O-])[nH]c2ccccc12
inactive: endpoint: median survival time, dose: 50.0 mg/kg/injection, schedule: Q04DX002 (ip), vehicle: saline with Tween-80 110 % of control | endpoint: median survival time, dose: 100.0 mg/kg/injection, schedule: Q04DX002 (ip), vehicle: saline with Tween-80 110 % of control | endpoint: median survival time, dose: 200.0 mg/kg/injection, schedule: Q04DX002 (ip), vehicle: saline with Tween-80 120 % of control

CCCC(=O)OCc1cc(=O)n(C)c2c3c4c(cc12)c(C)cc(=O)n4CO3
inactive: endpoint: mean survival time, dose: 1.56 mg/kg/injection, schedule: Q01DX009 (ip), vehicle: Klucel (hydroxypropylcellulose) (HPC) 97 % of control | endpoint: mean survival time, dose: 3.12 mg/kg/injection, schedule: Q01DX009 (ip), vehicle: Klucel (hydroxypropylcellulose) (HPC) 106 % of control and 112 % of control | endpoint: mean survival time, dose: 6.25 mg/kg/injection, schedule: Q01DX009 (ip), vehicle: Klucel (hydroxypropylcellulose) (HPC) 116 % of control and 105 % of control and 109 % of control | endpoint: mean survival time, dose: 12.5 mg/kg/injection, schedule: Q01DX009 (ip), vehicle: Klucel (hydroxypropylcellulose) (HPC) 113 % of control and 107 % of control and 110 % of control | endpoint: mean survival time, dose: 25.0 mg/kg/injection, schedule: Q01DX009 (ip), vehicle: Klucel (hydroxypropylcellulose) (HPC) 117 % of control and 119 % of control and 124 % of control | [11] 118 % of control and 124 % of control | [12] 96 % of control

CCOC(=O)N(Cl)Cl
inactive: endpoint: mean survival time, dose: 12.5 mg/kg/injection, schedule: Q04DX003 (ip), vehicle: saline 102 % of control

COC(=O)c1cncn1C(C)c1cccc2ccccc12 (stereo not drawn)
inactive: [2] 108 % of control | [3] 100 % of control

COc1cc(OC)c(NC(=O)Oc2ccc(C=O)cc2OC)cc1Cl
inactive: [1] 86 % of control | [5] 96 % of control

Cc1cnc(Br)c(Br)c1
inactive: [13] 101 % of control | [5] 110 % of control | [14] 101 % of control | [6] 100 % of control | [15] 103 % of control | [7] 100 % of control

CCCCCCSC(=O)Nc1ccc(C)c(NC(=O)SCCCCCC)c1
inactive: [1] 95 % of control | [5] 93 % of control | [6] 93 % of control

CC(=O)c1ccc(Cl)cc1Cl
inactive: endpoint: mean survival time, dose: 25.0 mg/kg/injection, schedule: Q01DX001 (ip), vehicle: other 104 % of control | endpoint: mean survival time, dose: 50.0 mg/kg/injection, schedule: Q01DX001 (ip), vehicle: other 102 % of control | endpoint: mean survival time, dose: 100.0 mg/kg/injection, schedule: Q01DX001 (ip), vehicle: other 95 % of control

Fc1ccc(NC(=S)SCc2ccc(Cl)c(Cl)c2)cc1F
inactive: endpoint: mean survival time, dose: 12.5 mg/kg/injection, schedule: Q01DX009 (ip), vehicle: saline 98 % of control | endpoint: mean survival time, dose: 12.5 mg/kg/injection, schedule: Q01DX009 (ip), vehicle: suspension in saline 98 % of control | endpoint: mean survival time, dose: 25.0 mg/kg/injection, schedule: Q01DX009 (ip), vehicle: saline 101 % of control | endpoint: mean survival time, dose: 25.0 mg/kg/injection, schedule: Q01DX009 (ip), vehicle: suspension in saline 108 % of control | [11] 112 % of control | endpoint: mean survival time, dose: 50.0 mg/kg/injection, schedule: Q01DX009 (ip), vehicle: saline 98 % of control | endpoint: mean survival time, dose: 50.0 mg/kg/injection, schedule: Q01DX009 (ip), vehicle: suspension in saline 103 % of control | [12] 107 % of control | endpoint: mean survival time, dose: 100.0 mg/kg/injection, schedule: Q01DX009 (ip), vehicle: saline 95 % of control | endpoint: mean survival time, dose: 100.0 mg/kg/injection, schedule: Q01DX009 (ip), vehicle: suspension in saline 104 % of control | endpoint: mean survival time, dose: 200.0 mg/kg/injection, schedule: Q01DX009 (ip), vehicle: Klucel (hydroxypropylcellulose) (HPC) 91 % of control

CCOC(=O)CCC1(CCC(=O)OCC)OCCO1
inactive: [2] 93 % of control | endpoint: mean survival time, dose: 100.0 mg/kg/injection, schedule: Q04DX003 (ip), vehicle: saline 100 % of control | [3] 98 % of control | endpoint: mean survival time, dose: 200.0 mg/kg/injection, schedule: Q04DX003 (ip), vehicle: saline 96 % of control | [4] 98 % of control | endpoint: mean survival time, dose: 400.0 mg/kg/injection, schedule: Q04DX003 (ip), vehicle: saline 100 % of control

CSc1nc(NC2OC(CO)C(O)C(O)C2O)cc(=O)[nH]1 (stereo not drawn)
inactive: endpoint: median survival time, dose: 12.5 mg/kg/injection, schedule: Q01DX005 (ip), vehicle: saline 102 % of control | endpoint: median survival time, dose: 25.0 mg/kg/injection, schedule: Q01DX005 (ip), vehicle: saline 100 % of control | endpoint: median survival time, dose: 50.0 mg/kg/injection, schedule: Q01DX005 (ip), vehicle: saline 100 % of control | endpoint: median survival time, dose: 100.0 mg/kg/injection, schedule: Q01DX005 (ip), vehicle: saline 100 % of control | endpoint: median survival time, dose: 200.0 mg/kg/injection, schedule: Q01DX005 (ip), vehicle: saline 102 % of control

N=C(OC/C=C/c1ccccc1)C(Cl)(Cl)Cl
inactive: [13] 93 % of control | [14] 93 % of control | [15] 93 % of control
